Our source for the melting point values is a melting point compilation (Tetko et al.; mined from patent text by program, amines drawn as free bases though some values may be those of a salt).

As usually defined, the melting point is the temperature, or range, at which the solid turns liquid.

As to `CSc1cc2cnc(-c3ccccc3)n2c(SC)n1`, the melting point lay within 117 to 118 °C. The result for `CCSc1nc(=O)n(C(=O)Nc2cccc(Cl)c2)s1` reads 168 °C; that for `Oc1ccc(-c2nc3cc(O)cc(Br)c3o2)cc1`, 139 to 141 °C. As for `CC(C)C(O)CN1N=C(c2ccc(Cl)cc2)CCC1=O` (configuration not stated), the melting point was 90 to 92 °C. The result for `O=C1c2ccccc2C(=O)N1CCc1c[nH]c(=O)[nH]c1=O` reads 324 to 327 °C. The result for `O=C(N(CCN(C(=O)C(F)(F)F)c1cccc2[nH]ccc12)Cc1ccccc1)C(F)(F)F` reads 174 to 177 °C; that for `ClC(Cl)=CCOc1cc(Cl)c(OCc2cccc(Cl)c2)c(Cl)c1`, 87 °C.

Compound `CCOC(=O)Sc1cc(C)nc(C(Cl)(Cl)Cl)n1` had a melting point of 33 to 34.5 °C. For `O=C(O)c1ccccc1OCCN1CCC(c2cn(Cc3ccoc3)c3ncccc23)CC1`, the melting point is 105 to 107 °C. The same measure for `CC(C)c1cccc(C(C)C)c1NC(=O)CSCCCCCCCCCCCCN1CCN(c2ccccc2)CC1`: 76.5 to 77.5 °C; for `CC(=O)NCc1cc(-c2ccccc2)c2c(n1)OCCN(Cc1cc(C(F)(F)F)cc(C(F)(F)F)c1)C2=O`: 223 to 224 °C. The same measure for `CC(C)(C)c1ccc(OCC(=O)O)cc1`: 93 to 95 °C; for `Cc1ccc(C(=O)N(C)C)cc1-c1nc(NCCN(C)C)nc2c1CNC(=O)N2c1c(F)cccc1F`: 138 to 142 °C; for `CCOC(=O)/C=C(/c1ccccc1)c1ccc([N+](=O)[O-])c(COS(C)(=O)=O)c1`: 87.8 °C.

Regarding `COc1ccc(Nc2nccc(-c3ccc(N4CCNCC4)nc3)n2)cn1`, the melting point is 160 to 165 °C. With `COc1cc(Nc2cc(-c3nnc(C)o3)ccn2)cc(C(F)(F)F)c1`, the melting point lay in the range of 241 to 242 °C. Compound `COC(=O)c1cc(OCc2ccc3ccccc3n2)nn1C(C)C` yielded a melting point of 64 to 65 °C. Regarding `CC#CCOc1cc(C=O)ccc1OC(F)F`, the melting point fell in the range of 46 to 47 °C. `C=CC(=O)NC1=CC(O)(C(C)=O)C(C(=O)O)C=C1` (configuration not stated) had a melting point of 171 °C. The result for `CN1C(=O)Cc2cc(CCCl)ccc21` reads 136 °C; that for `O=C(O)[C@H](Cc1cccc(OC(F)(F)C(F)F)c1)[C@@H](O)c1cccc(F)n1` (racemic), 103 to 104 °C; that for `Clc1ccccc1C1(c2ccc(-c3ccccc3)cc2)CO1` (configuration not stated), 70 °C.

In the case of `O=C(O)c1ccc(S(=O)(=O)n2c(=O)[nH]c3cc(Cl)ccc3c2=O)cc1`, the melting point was above 200 °C. For `CC[C@H](C)Nc1cc(C(=O)OC)cc(NS(C)(=O)=O)n1`, the melting point is 119 to 123 °C. The same measure for `CC(=O)SC(CC(=O)c1cccc(Cl)c1)C(=O)O` (configuration not stated): 85 to 86 °C; for `O=C1c2ccccc2C(=O)c2c(NC3CCCCC3)cccc21`: 145 °C. The same measure for `CCn1cc(-c2ccncn2)cc(Br)c1=O`: 195 to 197 °C. The compound `CC(C)Cn1c(SCc2ccccn2)nc2ccccc2c1=O` yielded a melting point of 91.7 to 93.2 °C. With `COC(=O)c1c(SCc2ccccc2)n[nH]c1C`, the melting point lay in the range of 109 to 110 °C. The same measure for `CC(C)c1cc(OCCO)cc2c1C(=O)N(COc1nc3ccccn3c(=O)c1Cl)S2(=O)=O`: 214 to 216 °C; for `CON=C(c1ccccc1COc1ccc(Cl)cc1)c1ncnn1C`: 113 to 114 °C. In the case of `C[C@H]1CC[C@H]2C(C)(C)[C@@H](O)[C@@H](OS(=O)(=O)c3ccccc3)C[C@]23Oc2c(c(O)cc4c2CNC4=O)C[C@]13C`, the melting point lay in the range of 142 to 144 °C. The result for `CN1CCN(CC/C=C/c2cc3ncc(C#N)c(Nc4ccc(Sc5nccn5C)c(Cl)c4)c3cc2F)CC1` reads 188 to 194 °C; that for `Cc1nnc(Sc2ncnc3c(C)csc23)s1`, 144 to 147 °C. The result for `CC(C)(C)CCOc1c(-c2ccc(S(C)(=O)=O)cc2)cnn(CC(F)(F)F)c1=O` reads 83 to 85 °C. The same measure for `CC(C)(C)OC(=O)CN(Cc1ccccn1)c1cc(C(F)(F)F)c(Br)c(C(F)(F)F)c1`: 77 to 78 °C; for `CC(Sc1nc(N)cc(Cl)n1)c1ccc2ccccc2c1` (configuration not stated): 55 to 58 °C.

`Cc1ncc(CS)c(COC(=O)c2ccccc2)c1OC(=O)c1ccccc1` showed a melting point of 185 to 189 °C. Consider `O=c1nc(-c2cnccn2)sc2ccccc12`, for which the melting point was 241 to 242 °C.

With `COc1ccc(C2Sc3c(ccc4ccccc34)N(CCCN(C)C)C(=O)C2O)cc1` (configuration not stated), the melting point fell in the range of 123 to 124 °C. The result for `O=c1[nH]c(CO)nc2cc3c(cc12)CCC3` reads 205 to 210 °C. In turn, `COC(=O)CN(C(=O)OC)C1CN(C(=O)Nc2ccc(C(F)(F)F)cc2)N=C1c1ccc(Cl)cc1` (configuration not stated) showed a melting point of 198 to 200 °C. The same measure for `O=C(c1ccnc(Cl)c1)N1CC2(CCN(CC=Cc3ccc(C(F)(F)F)cc3)CC2)c2cc(Cl)ccc21`: 130 °C. On to `CCc1cc(NC(=O)N2CCN(c3cc(N4CCCC4)nc(N4CCCC4)n3)CC2)c(OC)nc1C`, for which the melting point fell in the range of 162 to 166 °C. Turning to `CCOCc1nc2c(N)nc3cc(OCCc4c[nH]c5ccccc45)ccc3c2n1CC(C)(C)O`, the melting point lay within 220 to 222 °C. The same measure for `CCOc1ccc(CNC(=O)n2cc(F)c(=O)[nH]c2=O)cc1OC`: 153 °C. The result for `COc1cc(C(=O)NCCc2ccc(F)cc2)cnc1C(=O)O` reads 110 °C. The same measure for `Fc1ccc(Cn2c(NC3CCN(CCNc4nccs4)C3)nc3ccccc32)cc1` (configuration not stated): 127 °C.

`CN1CCN(CCCCC(=O)N2c3ccccc3C(=O)Nc3cccnc32)CC1` gave a melting point of 151 to 153 °C. The same measure for `Cc1nc2c(n1Cc1ccccc1)CCCC2=O`: 115 °C; for `CC(=O)c1c(C)[nH]c(-c2ccccc2C)c1N`: 258 °C.

Compound `COc1ccc([C@H]2C=CN(S(=O)(=O)c3ccc(OC)cc3)C(=O)[C@H]2CCC2C=CC=CC2=O)cc1` (some centres not stated) showed a melting point of 159 to 161 °C. Take `COc1on(C)c(=O)c1-c1ccccc1COc1ccccc1C`: the melting point lay within 90 to 92 °C. As for `CC(=O)Nc1ccc(CN2C(=O)[C@H]3CCC[C@H]3N(C(=O)CN3C(=O)c4ccccc4C3=O)c3ccccc32)cc1` (relative stereo), the melting point fell in the range of 303 to 306 °C. For `COc1cccc2c1CNC2`, the melting point was 58.5 to 60 °C. The same measure for `CN(C(=O)Oc1ccc([N+](=O)[O-])cc1)c1ccc(-c2ncn(-c3ccc(OC(F)(F)F)cc3)n2)cc1`: 145 to 147 °C; for `CCCc1c(OCCCCC(=O)c2ccc3cc(O)c(O)cc3c2)ccc(C(=O)O)c1O`: 213 to 214 °C; for `O=C(NCCc1ccccc1)c1ccccc1-c1ccccc1CNS(=O)(=O)c1cccc(F)c1`: 153 °C. On to `COC(C)=CC(=O)Nc1cccc(OC(C)=O)c1`, for which the melting point stood at 111 °C. In the case of `CC(=O)Oc1n[nH]c(=O)c2nc3cc(Cl)ccc3c(O)c12`, the melting point is above 300 °C. In turn, `CCCCCCCCCCCCC#CCO` yielded a melting point of 36 to 37 °C.

Compound `CCOC(=O)C1CCC2(CCN(S(=O)(=O)c3ccc(C)cc3)c3ccccc3C2)C1O` (configuration not stated) displayed a melting point of 139 to 140 °C. The same measure for `COCOc1ccc(-c2ncc3ccc(-c4csc(CN5CCCCC5)c4)nc3n2)cc1`: above 268 °C; for `CCC(=O)N(C)c1c(C(=O)c2cccc(Cl)c2)[nH]c2cc(Cl)ccc12`: 194 to 195 °C; for `O=C(Oc1ccccc1)c1cc([N+](=O)[O-])c2ccccc2c1O`: 157 °C. `CCOC(=O)C(Cc1ccc(C(F)(F)F)cc1)C(=O)c1ccoc1` (configuration not stated) returned a melting point of 55 to 56 °C. The result for `CCC1=C(O)C(=O)CC1` reads 39 to 41 °C; that for `CC(=O)N1CCc2cc(CC(C)Br)cc([N+](=O)[O-])c21` (configuration not stated), 119 to 120 °C; that for `CS(=O)(=O)Oc1cc(C=CC(=O)c2ccccc2)cc([N+](=O)[O-])c1OS(C)(=O)=O`, 181 to 184 °C. The result for `Cn1cc(-c2cc(-c3cnc4ccccc4c3)ccn2)n(-c2ccc(C(C)(C)C#N)cc2)c1=O` reads 180 °C; that for `CCOC(=S)CC/C(C)=C/Cc1c(OC)c(C)c2c(c1OC(N)=O)C(=O)OC2`, 145 to 147 °C; that for `COC(=O)C=C[C@@H](Cc1cn(CC=Cc2ccccc2)c2ccccc12)NC(=O)OC(C)(C)C`, 119 to 121 °C. In turn, `CC(NC(=O)c1ccc(C2(C)C(=O)Nc3cc(Cl)cc(Cl)c3C2=O)cc1)c1ccccc1` (configuration not stated) gave a melting point of 110 to 115 °C. The compound `CCCS(=O)(=O)Nc1cccc(C)c1C(N)c1cccn2c(C)c(C)nc12` (configuration not stated) registered a melting point of 245 to 248 °C. In turn, `C=CC(=O)NC1CCCCC1` displayed a melting point of 109 to 110 °C. `CCCCCCCCCCCCS(=O)(=O)Nc1ccccc1C(=O)Nc1cc(Cl)c2c(c1O)CN(C)C(=O)N2`: the melting point was 183 to 187 °C. The same measure for `CC(C)(C)OC(=O)CN(C(=O)CCl)c1ccccc1`: 86 °C. For the compound `Cn1nc(Oc2ccc([N+](=O)[O-])c([N+](=O)[O-])c2)c(Br)c1C(F)(F)F`, the melting point lay within 152 to 153 °C. The same measure for `CC(C)(C)P(c1cccc2ccccc12)C(C)(C)C`: 95 to 97 °C; for `COc1nc(C)nc(NC(=NS(=O)(=O)c2cccnc2)SC)n1`: 146 to 149 °C. The result for `CCOC(=O)Cc1c(C)[nH]c2ccc(F)cc12` reads 61 to 62 °C; that for `Fc1ccc(N2CCC(NCc3ccn4c(CC5CC5)nnc4c3C(F)(F)F)CC2)c(F)c1`, 118 °C.

With `C1COCCN2CCSCCSCCN(CCO1)CCSCCSCC2`, the melting point is 86 °C. In the case of `Cc1coc(C(=O)c2ccc(F)c(F)c2Nc2ccc(I)cc2F)n1`, the melting point turned out to be 127 °C. The result for `CCCc1c(O[C@@H]2CCC[C@H](Sc3ccc(C(=O)CCC(=O)O)cc3)C2)ccc(C(C)=O)c1O` (relative stereo) reads 101 to 103 °C. The result for `Cc1cc(C)c2c(c1C)OC(C)(C)C2c1ccc(N(C)C)cc1` (configuration not stated) reads 124 to 125 °C; that for `N#Cc1ccc(CC23CCCN2C(=O)N(c2cc(Cl)cc(-n4cccc4)c2)C3=O)cc1` (configuration not stated), 266 °C.
